Legend:
Cisd2 knockout mice [1] = experiment: Muscle and neuron degeneration in Cisd2 knockout mice after resveratrol treatment (H&E staining, TEM); type: in vivo, mouse; details: 30 mg/kg/day oral from 4- to 12-week old
Excerpt: (18A-F) H&E staining of transverse sections of skeletal muscle dissected from the 12-week old, male Cisd2 knockout mice with (18A) untreated control, (18B) resveratrol or (18C) H2O treatment, and (18D-F) relative wild-type control. Black arrowheads indicate degenerated transverse fibers. Blue arrows indicate angular fibres which are the evidences of muscle atrophy caused by neuron degeneration. (18G) The standard quantification score of muscle atrophy. (18H) The quantification of degenerative muscle fiberin under resveratrol treated or not. About 1000 muscle fibre in random fields of H&E staining slides were examined for each mouse. Values represent mean±s.d from at least three male samples. […] Myelin sheath degeneration (asterisks) was detected only in the Cisd2 knockout mice. […] (18U) The standard quantification score of axon and myelin sheath degeneration. (18V) The quantification of degenerative sciatic nerve in wild-type, Cisd2 knockout and Cisd2 knockout mice with resveratrol treatment, respectively. […] The standard quantification score of muscle atrophy was prepared. The quantification of degenerative muscle fiberin was measured under resveratrol treated or not. […] Myelin sheath degeneration was detected only in the Cisd2 knockout mice. The standard quantification score of axon and myelin sheath degeneration was created. […]

Cisd2 knockout mice [2] = experiment: Body weight of Cisd2 knockout mice after oral resveratrol treatment; type: in vivo, mouse; details: 30 mg/kg/day oral from 4- to 12-week old; effect after 8-week old; P<0.05 vs untreated control
Experimental: (17A) Oral administration of resveratrol (30 mg/kg/day) to Cisd2 knockout mice from 4- to 12-week old. (17B) To analyze the body weight of the Cisd2 knockout mice after resveratrol treatment and compare to 4-week old wild-type mice. Values represent mean±s.d from at least three male samples. Asterisks indicate statistically significant differences compare with untreated control. (*, P<0.05) Resveratrol (30 mg/kg/day) was administered by oral to Cisd2 knockout mice from 4- to 12-week old. The body weight of the Cisd2 knockout mice was analyzed after resveratrol treatment and comparing to 4-week old wild-type mice (FIG. 17).

## Oc1ccc(C=Cc2cc(O)cc(O)c2)cc1 [Resveratrol]
Cisd2 knockout mice [1]; 12-week old male mice, skeletal muscle H&E, skeletal and cardiac muscle ultrastructure
  muscle degeneration of the Cisd2 knockout mice: partial rescue
Cisd2 knockout mice [1]; 12-week old mice, sciatic nerve TEM, axon and myelin sheath degeneration
  neuron degeneration of the Cisd2 knockout mice: partial rescue
Cisd2 knockout mice [2]
  body weight of Cisd2 knockout mice: significant reverse
